US20240115558A1
“Also recorded” adds a separate entry of the source. Where a name gives a salt, the structure may show the parent alone.

Tests used:
[1] = test system: patients with Niemann-Pick disease, type C (NPC); assay: 12-month randomized, double-blind, placebo-controlled phase 2/3 trial of arimoclomol in NPC: clinical efficacy endpoints; assay type: in vivo, human; set-up: key to Change from baseline in 5-domain NPCCSS score, treatment difference / Change in 5-domain NPCCSS score from baseline at 12 months, mean change / Change in 5-domain NPCCSS score, mean change / Change from baseline in 5-domain NPCCSS score, LSMean: 5-domain NPCCSS points (total 0–25, higher = more severe impairment); details: for Change from baseline in 5-domain NPCCSS score, LSMean / Change from baseline in 5-domain NPCCSS score, treatment difference: patients with ER genotype; for Change in 5-domain NPCCSS score, mean change: 12 months
Procedure: Patients enrolled in the trial were stratified by use of miglustat at baseline. Patients in both strata were randomized 2:1 to receive arimoclomol or placebo.
Routine clinical care was maintained throughout the trial (including administration of miglustat). Each participant was randomized to receive arimoclomol or placebo three times daily. Arimoclomol (calculated as free base) was administered orally or by feeding tube at 93-372 mg/day based on the patient's body weight up to the estimated equivalence of 372 mg/day for adults (body weight>55 kg) or of 124 mg three times a day.
During the 12-month treatment phase, efficacy assessments for the primary endpoint, the 5-domain NPCCSS score, and for the non-disease specific Clinical Global Impression-Improvement scale (CGI-I) scores were performed at baseline and after 3, 6, 9, and 12 months of treatment; all other efficacy and biomarker assessments were performed at baseline and after 6 and 12 months of treatment.
Primary endpoint: The primary endpoint was change from baseline in NPC severity at 12 months as assessed by the 5-domain NPCCSS score, an abbreviated assessment tool originating from the 17 domain NPCCSS score developed by Yanjanin et al., as described herein. The fully validated 5-domain NPCCSS score comprises the domains determined to be most clinically relevant to patients, caregivers, and clinicians: ambulation, cognition, fine motor skills, speech, and swallowing. The total aggregated 5-domain NPCCSS score ranges from 0 to 25, with a higher score indicating more severe clinical impairment.
Subgroup analyses of primary endpoint: NPC is a heterogeneous disease, and patients aged 2 to 18 years present with a large spectrum of disease presentations. The group of children<4 years old includes patients with mild manifestations and patients with aggressive, early fatal disease. As this group is particularly heterogeneous, a subgroup of patients ≥4 years of age was predefined with the population of study participants.
In the EU, miglustat is indicated for the treatment of progressive neurological manifestations in patients with NPC. However, not all patients are candidates for miglustat treatment, and it is recommended that the benefit of treatment should be evaluated on a regular basis (e.g., every six months). An analysis of the subpopulation of patients receiving miglustat was prespecified to elucidate the effect of arimoclomol in patients on background miglustat treatment. Overall, the subgroups of patients ≥4 years of age, and patients on miglustat treatment, were expected to be more homogeneous with respect to baseline demographics and disease characteristics and therefore more suitable for comparison.
In the first post hoc analysis, subjects with double functional null mutations in NPC1 (NPC1 genotype of Functional Null/Functional Null) were excluded.
In the second post hoc analysis, only subjects with annual severity increment score (ASIS) 0.5-2.0 were included.
In an additional post hoc analysis, only subjects with at least one ER type mutation were included.

[2] = test system: HSPA1A, the gene encoding HSP70; assay: HSPA1A expression in NPC patient fibroblasts treated with arimoclomol; assay type: cell-based, human; details: NPC patient fibroblasts I1061T/I1061T; various concentrations; days 2 and 5
Procedure: The expression level of HSP1A1 is quantified on days 2 and day 5. The data are further described in Example 2.
(§1) Fibroblasts were seeded one day prior to treatment (day −1) with either 400 μM arimoclomol or PBS (control). Cells were treated continuously with arimoclomol from day 0 to day 5, with a media change on day 3, and harvested on day 5. The cells thus experienced 5 days of continued arimoclomol treatment. Cells were subsequently lysed with RIPA buffer containing protease and phosphatase inhibitors. Protein concentration for each sample was quantified with a BCA assay kit.

[3] = test system: NPC1 protein; assay: Total NPC1 protein by western blot in NPC patient fibroblast cell lines; assay type: cell-based, human; details: patient fibroblasts with the most common NPC1 mutations; 50-400 μM, five days
Procedure: The data are further described in Example 2.
as §1

[4] = test system: NPC1 protein in GM18453 (I1061T/I1061T); assay: EndoH-resistant NPC1 by western blot, GM18453 fibroblasts; assay type: cell-based, human; details: 400 μM, 5 days
Procedure: (§2) PNGase cleaves all glycans from the NPC1 protein regardless of maturation status and is included as a control. EndoH sensitive, immature NPC1 is seen in untreated GM18453 extracts. (B) Quantification of the EndoH resistant NPC1, shown as arimoclomol treated relative to untreated cells. Cells were treated for 5 days with 400 μM arimoclomol. Average of three independent experiments, mean±SD. Pairwise t-test (p: *<0.05). The data are further described in Example 2. […]
(§3) Fibroblasts were seeded one day prior to treatment (day −1) with either 400 μM arimoclomol or PBS (control). […] Protein concentration for each sample was quantified with a BCA assay kit. […]
(§4) Proteins were resolved by SDS-PAGE and detected with Western blot (NPC1&tubulin).
(§5) For the quantification of mature and immature forms of NPC1 as shown in FIGS. 5A-B, membranes were imaged and protein bands for the immature (EndoH sensitive) and mature (EndoH resistant) forms of NPC1 (180-250 kDa) and tubulin (50 kDa) were quantified using ImageJ software. […] The fold change of EndoH-resistant NPC1 protein after arimoclomol treatment relative to PBS-treated (untreated) control within each cell line was quantified. […]

[5] = test system: NPC1 protein in GM18420 (P1007A/IVS23+4delA); assay: EndoH-resistant NPC1 by western blot, GM18420 fibroblasts; assay type: cell-based, human; details: 400 μM, 5 days
Procedure: as §2, §3, §4, §5

[6] = evidenced by presence in cerebrospinal fluid of treated ALS patients; cited from earlier work
[7] = test system: patients with Niemann-Pick disease, type C (NPC); assay: Phase 2/3 NPC trial: safety evaluation
Procedure: Study Procedures: the screening visit (visit 1) included a baseline assessment, randomization assignment, and pharmacokinetic (PK) assessment. The first dose of arimoclomol or placebo was given within 1 week of randomization. Safety assessments were performed at visit 2 (7-14 days after start of treatment) and then every 3 months during the blinded period (visits 3-6).

[O-][n+]1cccc(/C(Cl)=N/OC[C@H](O)CN2CCCCC2)c1 [Arimoclomol, (+)-(R)-N-[2-hydroxy-3-(1-piperidinyl)-propoxy]-pyridine-1-oxide-3-carboximidoyl chloride citrate]
SARA score change from baseline to 12 months, LS mean ([1]; human, in vivo): 1.06 | SARA score change from baseline to 12 months, arimoclomol vs placebo: difference ([1]; human, in vivo): 0.28 | Change in 5-domain NPCCSS score from baseline at 12 months, mean change ([1]; overall population, arimoclomol 93-372 mg/day (free base) t.i.d.): 0.80 | Change from baseline in 5-domain NPCCSS score, LSMean ([1]; month 3): −0.29 | Change from baseline in 5-domain NPCCSS score, treatment difference ([1]; month 3): −1.60 | Change from baseline in 5-domain NPCCSS score, LSMean ([1]; month 6): 0.61 | Change from baseline in 5-domain NPCCSS score, treatment difference ([1]; month 6): −2.19 | Change from baseline in 5-domain NPCCSS score, LSMean ([1]; month 9): 0.86 | Change from baseline in 5-domain NPCCSS score, treatment difference ([1]; month 9): −3.44 | Change from baseline in 5-domain NPCCSS score, LSMean ([1]; month 12): 0.52 | Change from baseline in 5-domain NPCCSS score, treatment difference ([1]; month 12): −4.79 | Change in 5-domain NPCCSS score, mean change ([1]; post hoc: ASIS within 0.5 and 2): 0.19 | Change in 5-domain NPCCSS score, mean change ([1]; post hoc: excluding individuals with double functional null mutations): 0.47 | Expression of HSPA1A relative to PBS-treated control [2]: time- and dose-dependent increase | Amount of total NPC1 protein relative to PBS-treated control [3]: increased | Amount of EndoH-resistant (correctly processed) NPC1 relative to PBS-treated cells [4]: increased | Amount of EndoH-resistant (correctly processed) NPC1 relative to PBS-treated cells ([4]; listed as arimoclomol): increased; also recorded: clear increase of correctly matured NPC1 protein | Amount of EndoH-resistant (correctly processed) NPC1 relative to PBS-treated cells [5]: increased | Blood-brain barrier passage [6]: crosses the blood-brain barrier | Tolerability ([7]; 12-month trial): well tolerated | Patients with increase in serum creatinine level over 1.5 times their baseline values ([7]; arimoclomol group): Six | Patients with serum creatinine levels over twice baseline values ([7]; arimoclomol group): two | Patients with TEAEs ([7]; arimoclomol group, 30/34): 88.2% | Changes in vital signs, electrocardiograms, or other laboratory values during the trial ([7]; in vivo): no significant changes | TEAEs occurring more frequently with arimoclomol versus placebo ([7]; in vivo): Upper respiratory tract infection and decreased weight | Patients with TEAEs that led to trial drug discontinuation ([7]; three patients, four TEAEs (urticaria, angioedema, increased blood creatinine)): 8.8%
